Data published in patent US20170202932A1, “METHODS FOR INHIBITING NEURON APOPTOSIS AND NECROSIS” (NEWSOUTH INNOVATIONS PTY LIMITED, priority 2012, published 2017).

Legend:
[1] = target: T1, recombinant mouse TRPC3c channels (Mus musculus, UniProt Q9QZC1, DEL811-838); test: Whole-cell patch clamp of CCh-activated current, HEK293 cells expressing TRPC3c; format: cell-based; conditions: TRPC3c+CCh (100 μM)+genistein 200 μM pre-incubation; Vh=−50 mV; n=7; CCh alone −809.4±36.9 pA
T1 construct: expressed in transfected cells; host or cells: HEK293 cells, stably transfected (pIRES-DsRed2 vector)
T1 sequence (Q9QZC1 with tags, fused parts or gaps DEL811-838): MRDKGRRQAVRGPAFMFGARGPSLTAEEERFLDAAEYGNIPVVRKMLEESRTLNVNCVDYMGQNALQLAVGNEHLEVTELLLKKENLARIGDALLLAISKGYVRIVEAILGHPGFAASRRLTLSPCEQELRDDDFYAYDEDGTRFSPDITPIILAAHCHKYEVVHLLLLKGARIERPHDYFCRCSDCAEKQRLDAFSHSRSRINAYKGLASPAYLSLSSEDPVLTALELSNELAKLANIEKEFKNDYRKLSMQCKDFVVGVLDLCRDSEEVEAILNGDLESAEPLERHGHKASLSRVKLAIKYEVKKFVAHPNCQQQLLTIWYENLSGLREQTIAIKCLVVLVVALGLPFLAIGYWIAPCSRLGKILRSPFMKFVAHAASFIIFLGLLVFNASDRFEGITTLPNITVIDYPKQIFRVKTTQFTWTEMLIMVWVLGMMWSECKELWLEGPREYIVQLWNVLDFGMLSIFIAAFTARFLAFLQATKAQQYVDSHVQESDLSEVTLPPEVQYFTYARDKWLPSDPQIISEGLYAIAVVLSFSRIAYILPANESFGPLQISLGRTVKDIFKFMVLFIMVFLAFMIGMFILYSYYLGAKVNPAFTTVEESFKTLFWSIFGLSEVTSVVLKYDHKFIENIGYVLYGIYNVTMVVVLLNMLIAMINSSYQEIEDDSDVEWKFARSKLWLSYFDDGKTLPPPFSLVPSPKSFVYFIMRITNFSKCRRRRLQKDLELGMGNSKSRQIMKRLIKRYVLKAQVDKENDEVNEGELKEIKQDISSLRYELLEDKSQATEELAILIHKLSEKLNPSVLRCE
Method: For whole cell patch clamp recordings, HEK293 cells stably expressing recombinant TRPC3 ion channels were grown to 85-95% confluence on a coverslip coated with poly-D-lysine and collagen (both from Sigma-Aldrich, U.S.A.). Recording pipettes were made from borosilicate glass (GC120TF-10, Harvard Apparatus, U.K.). The pipette resistance was at 3-6 MΩ (PC-10, Narishige, Japan). The internal solution had the composition: 130 mM CsCl, 2 mM MgCl2, 10 mM EGTA, 0.3 mM ATP, 0.03 mM GTP, pH at 7.3 adjusted with CsOH. Cells on the coverslip were placed in a microchamber on an inverted microscope (Leica DMIL, Germany) and superfused with HEPES-buffered physiological salt solution (HPSS) containing 120 mM NaCl, 5.4 mM KCl, 2 mM CaCl2, 1.13 mM MgCl2, 10 mM glucose, 20 mM HEPES (pH 7.4) at room temperature.
Whole cell patch clamp recordings were made following a gigaseal, using an Axopatch 200 patch clamp amplifier (Molecular Devices, U.S.A.) controlled by software (pClamp 10.2, Molecular Devices, U.S.A.). Cell capacitance was cancelled and series resistance was compensated by ˜90%. […] Carbachol (used to activate TRPC3 channels via the endogenously expressed M3 AChR) was purchased from Sigma-Aldrich (U.S.A.). DHPG (—(S)-2-amino-2-(3,5-dihydroxyphenyl)acetic acid), a group I mGluR agonist (Schoepp et al. 1994), was purchased from Tocris Bioscience (U.K.). […]

[2] = target: T1, recombinant mouse TRPC3c channels; test: Fluo-4 Ca2+ imaging of DHPG-activated Ca2+ entry, HEK293 cells co-expressing TRPC3c and mGluR1; format: cell-based; conditions: genistein 200 μM pre-application, n=6, without genistein 2.71±0.217
Method: The TRPC3-mediated Ca^2+ entry through two distinct activation pathways was assessed by microfluorometric Ca^2+ imaging: i) Ca^2+ entry via the M3 receptor-PLCB-DAG pathway endogenous to HEK293 cells, using Indo-1 as a Ca^2+ indicator; and ii) Ca^2+ entry via mGluR1-PLCB-DAG through co-expression of the mGluR1, using Fluo-4 as a Ca^2+ indicator.
Cells were grown in DMEM media on 18 mm circular coverslips coated with poly-D-lysine (25 μg/ml) and collagen (25 μg/ml) at 1:1 ratio. The cells were washed with HPSS. The coverslips were then incubated with HPSS and 0.1% pluronic acid, along with either 1 μM Indo-1AM or Fluo-4AM Ca^2+ indicator (Invitrogen, U.S.A.) for an hour prior to the experiment. […]
For Fluo-4 experiments, the cells were mounted on an inverted microscope (DMIL, Leica) with a 20× 0.4NA objective (Leica HCX PL Fluotar), and illuminated with a mercury lamp using a GFP filter (part no. 11504164; excitation 470/40 nm, dichroic 500 nm, emission 525/50 nm) every 5 seconds (Andor iXon+ 885 EMCCD Camera, Ireland) with a gated shutter (Ludl Electronic Products, U.S.A.), controlled via Andor IQ (v1.8.1) software. The images were then analysed using Image J software (NIH, U.S.A.) with individual regions of interest (ROIs) identified for HEK293 cells responding to M3 or mGluR1 agonists with increased Ca^2+ signal. […]

mean peak CCh-activated whole-cell inward current [1]: −35.4±8.1 pA | Fluo-4 fluorescence F/F0 (TRPC3-mediated Ca2+ entry after DHPG) [2]: 0.876±0.0621
SMILES: O=c1c(-c2ccc(O)cc2)coc2cc(O)cc(O)c12 [genistein, 4′, 5,7-trihydroxyisoflavone]
